Test [1] deals with Cyclin-dependent kinase 3 (Homo sapiens, UniProt Q00526).
For test [2], the target named is T1, Uncharacterized protein FLJ45252 (Homo sapiens, UniProt Q6ZSR9).
T1 sequence (Q6ZSR9 whole entry): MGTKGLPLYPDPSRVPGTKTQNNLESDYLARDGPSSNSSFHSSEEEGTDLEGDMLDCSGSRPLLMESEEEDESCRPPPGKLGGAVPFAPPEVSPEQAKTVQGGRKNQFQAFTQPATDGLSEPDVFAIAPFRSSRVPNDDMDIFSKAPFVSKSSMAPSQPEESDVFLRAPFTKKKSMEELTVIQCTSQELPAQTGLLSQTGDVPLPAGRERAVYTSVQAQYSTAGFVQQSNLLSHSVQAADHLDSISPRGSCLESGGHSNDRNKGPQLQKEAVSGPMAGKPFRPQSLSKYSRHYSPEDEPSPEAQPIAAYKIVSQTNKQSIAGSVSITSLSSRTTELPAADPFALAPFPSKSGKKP
To be noted: read-out: Kd apparent; k-562, colo 205, sk-n-be(2) and mv-4-11.

The target of test [3] is Ribosomal protein S6 kinase alpha-6 (Homo sapiens, UniProt Q9UK32).
Chain of Ribosomal protein S6 kinase alpha-6 (Q9UK32 whole entry): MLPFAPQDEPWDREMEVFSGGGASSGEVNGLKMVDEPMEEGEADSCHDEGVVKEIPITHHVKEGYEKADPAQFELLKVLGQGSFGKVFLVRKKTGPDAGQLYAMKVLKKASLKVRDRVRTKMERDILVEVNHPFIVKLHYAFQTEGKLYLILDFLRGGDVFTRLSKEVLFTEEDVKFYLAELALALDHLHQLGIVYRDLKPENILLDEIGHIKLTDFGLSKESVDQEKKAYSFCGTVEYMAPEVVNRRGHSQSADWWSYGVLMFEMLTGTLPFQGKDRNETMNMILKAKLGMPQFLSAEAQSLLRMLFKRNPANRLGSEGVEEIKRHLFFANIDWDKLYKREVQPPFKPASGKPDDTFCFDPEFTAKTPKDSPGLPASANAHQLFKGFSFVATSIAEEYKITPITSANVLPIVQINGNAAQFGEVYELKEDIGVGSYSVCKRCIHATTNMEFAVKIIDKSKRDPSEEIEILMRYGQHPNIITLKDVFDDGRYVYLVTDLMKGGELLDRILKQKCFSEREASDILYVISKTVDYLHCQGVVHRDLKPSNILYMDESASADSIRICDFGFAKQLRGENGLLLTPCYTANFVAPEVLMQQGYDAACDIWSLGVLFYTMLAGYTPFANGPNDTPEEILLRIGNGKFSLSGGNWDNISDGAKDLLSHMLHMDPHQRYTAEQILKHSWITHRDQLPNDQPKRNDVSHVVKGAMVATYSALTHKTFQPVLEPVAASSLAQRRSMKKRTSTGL
Test [4] deals with Mitotic checkpoint serine/threonine-protein kinase BUB1 (Homo sapiens, UniProt O43683).
Chain of Mitotic checkpoint serine/threonine-protein kinase BUB1 (O43683 whole entry, canonical isoform): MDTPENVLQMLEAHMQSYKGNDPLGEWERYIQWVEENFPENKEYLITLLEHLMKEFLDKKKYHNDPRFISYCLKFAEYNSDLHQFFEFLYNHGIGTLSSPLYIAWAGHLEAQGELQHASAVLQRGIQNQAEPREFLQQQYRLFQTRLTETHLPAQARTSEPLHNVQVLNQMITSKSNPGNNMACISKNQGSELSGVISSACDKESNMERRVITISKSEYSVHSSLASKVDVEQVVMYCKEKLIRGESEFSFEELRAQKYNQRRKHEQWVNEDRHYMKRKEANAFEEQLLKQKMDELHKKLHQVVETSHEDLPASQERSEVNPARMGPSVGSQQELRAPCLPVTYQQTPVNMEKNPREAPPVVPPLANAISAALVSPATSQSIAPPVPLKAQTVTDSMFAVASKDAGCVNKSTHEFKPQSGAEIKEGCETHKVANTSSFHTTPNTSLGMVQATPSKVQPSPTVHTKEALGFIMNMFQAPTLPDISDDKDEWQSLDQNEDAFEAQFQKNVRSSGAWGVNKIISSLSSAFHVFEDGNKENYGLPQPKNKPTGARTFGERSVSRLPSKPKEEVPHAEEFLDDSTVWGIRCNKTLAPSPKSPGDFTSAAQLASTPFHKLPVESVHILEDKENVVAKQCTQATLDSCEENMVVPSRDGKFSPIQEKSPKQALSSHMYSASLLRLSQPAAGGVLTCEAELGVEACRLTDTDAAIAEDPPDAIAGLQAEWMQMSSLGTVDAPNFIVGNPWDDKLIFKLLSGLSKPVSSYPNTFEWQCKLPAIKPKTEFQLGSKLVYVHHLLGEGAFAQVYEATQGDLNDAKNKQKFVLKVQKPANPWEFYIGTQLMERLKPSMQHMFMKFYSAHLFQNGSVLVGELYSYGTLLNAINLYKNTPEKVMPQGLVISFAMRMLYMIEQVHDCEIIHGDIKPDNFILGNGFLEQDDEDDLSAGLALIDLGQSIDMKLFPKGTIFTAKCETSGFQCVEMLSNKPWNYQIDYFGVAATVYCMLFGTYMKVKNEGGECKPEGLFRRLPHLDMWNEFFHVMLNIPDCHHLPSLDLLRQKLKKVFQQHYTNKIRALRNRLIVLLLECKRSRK
For test [5], the target named is Casein kinase I isoform alpha (Homo sapiens, UniProt P48729).
Chain of Casein kinase I isoform alpha (P48729 whole entry, canonical isoform): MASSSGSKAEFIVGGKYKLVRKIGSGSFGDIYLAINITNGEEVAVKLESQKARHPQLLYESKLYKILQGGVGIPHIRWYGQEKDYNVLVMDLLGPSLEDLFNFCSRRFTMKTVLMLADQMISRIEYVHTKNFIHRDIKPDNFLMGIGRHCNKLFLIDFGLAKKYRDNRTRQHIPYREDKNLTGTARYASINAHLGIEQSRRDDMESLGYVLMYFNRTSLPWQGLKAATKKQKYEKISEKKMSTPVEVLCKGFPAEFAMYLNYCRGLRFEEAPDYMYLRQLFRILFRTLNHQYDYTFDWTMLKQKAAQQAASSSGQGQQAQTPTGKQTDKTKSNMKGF
Test [6] addresses AP2-associated protein kinase 1 (Homo sapiens, UniProt Q2M2I8).
Test [7] concerns the target T2, Dual specificity mitogen-activated protein kinase kinase 6 (Homo sapiens, UniProt P52564).
T2 sequence (P52564 whole entry): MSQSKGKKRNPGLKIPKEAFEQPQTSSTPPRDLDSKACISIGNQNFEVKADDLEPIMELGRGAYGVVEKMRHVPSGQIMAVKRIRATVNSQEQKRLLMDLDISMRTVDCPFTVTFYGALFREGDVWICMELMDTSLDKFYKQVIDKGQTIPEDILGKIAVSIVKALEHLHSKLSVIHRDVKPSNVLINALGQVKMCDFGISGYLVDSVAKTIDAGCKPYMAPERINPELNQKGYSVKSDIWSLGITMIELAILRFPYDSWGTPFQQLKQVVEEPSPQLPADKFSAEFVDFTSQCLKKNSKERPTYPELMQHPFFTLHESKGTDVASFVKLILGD

Another test addresses Deoxycytidine kinase (Homo sapiens, UniProt P27707).
For test [8], the target named is T3, Serine/threonine-protein kinase ICK (Homo sapiens, UniProt Q9UPZ9).
T3 sequence (Q9UPZ9 whole entry): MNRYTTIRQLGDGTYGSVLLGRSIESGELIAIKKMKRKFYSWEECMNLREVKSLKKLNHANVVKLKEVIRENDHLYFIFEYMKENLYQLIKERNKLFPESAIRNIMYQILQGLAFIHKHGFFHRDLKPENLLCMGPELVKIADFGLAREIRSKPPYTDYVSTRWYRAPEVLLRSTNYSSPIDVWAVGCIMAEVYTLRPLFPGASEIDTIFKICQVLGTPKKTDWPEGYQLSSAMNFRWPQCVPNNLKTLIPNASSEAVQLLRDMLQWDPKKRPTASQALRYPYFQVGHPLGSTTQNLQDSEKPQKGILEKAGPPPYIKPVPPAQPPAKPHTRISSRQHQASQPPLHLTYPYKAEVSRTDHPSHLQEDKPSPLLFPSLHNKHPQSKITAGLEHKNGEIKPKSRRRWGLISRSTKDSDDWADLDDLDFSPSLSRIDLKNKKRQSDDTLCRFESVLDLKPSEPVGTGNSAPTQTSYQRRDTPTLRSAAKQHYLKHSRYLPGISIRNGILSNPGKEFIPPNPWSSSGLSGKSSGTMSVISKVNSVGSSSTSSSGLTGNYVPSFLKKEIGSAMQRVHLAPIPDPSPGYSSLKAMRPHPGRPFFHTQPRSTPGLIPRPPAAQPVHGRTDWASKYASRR

Test [9] has as its target T4, cGMP-dependent protein kinase 1 (Homo sapiens, UniProt Q13976).
T4 sequence (Q13976 whole entry): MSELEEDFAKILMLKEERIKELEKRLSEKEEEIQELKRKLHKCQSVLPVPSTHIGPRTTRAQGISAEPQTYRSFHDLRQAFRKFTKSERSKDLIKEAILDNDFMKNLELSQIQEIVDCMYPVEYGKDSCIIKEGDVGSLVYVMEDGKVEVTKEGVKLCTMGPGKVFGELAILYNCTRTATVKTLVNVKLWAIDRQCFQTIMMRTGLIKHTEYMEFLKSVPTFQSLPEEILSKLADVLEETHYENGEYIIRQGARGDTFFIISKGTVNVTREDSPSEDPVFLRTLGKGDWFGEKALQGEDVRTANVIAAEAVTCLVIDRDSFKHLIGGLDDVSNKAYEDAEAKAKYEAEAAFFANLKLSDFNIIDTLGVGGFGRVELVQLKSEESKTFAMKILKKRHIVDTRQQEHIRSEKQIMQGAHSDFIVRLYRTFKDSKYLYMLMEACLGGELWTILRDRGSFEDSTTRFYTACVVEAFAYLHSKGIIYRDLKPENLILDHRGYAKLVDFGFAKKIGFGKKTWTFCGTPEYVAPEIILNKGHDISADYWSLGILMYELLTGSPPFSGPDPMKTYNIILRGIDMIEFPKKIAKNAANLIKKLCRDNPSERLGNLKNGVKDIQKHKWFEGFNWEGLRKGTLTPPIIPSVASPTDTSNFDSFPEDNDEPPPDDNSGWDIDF

For test [10], the target named is Macrophage-stimulating protein receptor (Homo sapiens, UniProt Q04912).
Chain of Macrophage-stimulating protein receptor (Q04912 25-304 limits assumed): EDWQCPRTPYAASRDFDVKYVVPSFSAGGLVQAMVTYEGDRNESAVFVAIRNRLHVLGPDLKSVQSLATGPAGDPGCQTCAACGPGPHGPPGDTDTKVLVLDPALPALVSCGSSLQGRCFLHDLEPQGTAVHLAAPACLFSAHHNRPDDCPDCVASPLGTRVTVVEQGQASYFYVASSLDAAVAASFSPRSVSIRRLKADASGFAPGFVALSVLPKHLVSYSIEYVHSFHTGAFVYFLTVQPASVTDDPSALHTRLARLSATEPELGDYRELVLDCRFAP
Chain of Macrophage-stimulating protein receptor (Q04912 310-1400 limits assumed): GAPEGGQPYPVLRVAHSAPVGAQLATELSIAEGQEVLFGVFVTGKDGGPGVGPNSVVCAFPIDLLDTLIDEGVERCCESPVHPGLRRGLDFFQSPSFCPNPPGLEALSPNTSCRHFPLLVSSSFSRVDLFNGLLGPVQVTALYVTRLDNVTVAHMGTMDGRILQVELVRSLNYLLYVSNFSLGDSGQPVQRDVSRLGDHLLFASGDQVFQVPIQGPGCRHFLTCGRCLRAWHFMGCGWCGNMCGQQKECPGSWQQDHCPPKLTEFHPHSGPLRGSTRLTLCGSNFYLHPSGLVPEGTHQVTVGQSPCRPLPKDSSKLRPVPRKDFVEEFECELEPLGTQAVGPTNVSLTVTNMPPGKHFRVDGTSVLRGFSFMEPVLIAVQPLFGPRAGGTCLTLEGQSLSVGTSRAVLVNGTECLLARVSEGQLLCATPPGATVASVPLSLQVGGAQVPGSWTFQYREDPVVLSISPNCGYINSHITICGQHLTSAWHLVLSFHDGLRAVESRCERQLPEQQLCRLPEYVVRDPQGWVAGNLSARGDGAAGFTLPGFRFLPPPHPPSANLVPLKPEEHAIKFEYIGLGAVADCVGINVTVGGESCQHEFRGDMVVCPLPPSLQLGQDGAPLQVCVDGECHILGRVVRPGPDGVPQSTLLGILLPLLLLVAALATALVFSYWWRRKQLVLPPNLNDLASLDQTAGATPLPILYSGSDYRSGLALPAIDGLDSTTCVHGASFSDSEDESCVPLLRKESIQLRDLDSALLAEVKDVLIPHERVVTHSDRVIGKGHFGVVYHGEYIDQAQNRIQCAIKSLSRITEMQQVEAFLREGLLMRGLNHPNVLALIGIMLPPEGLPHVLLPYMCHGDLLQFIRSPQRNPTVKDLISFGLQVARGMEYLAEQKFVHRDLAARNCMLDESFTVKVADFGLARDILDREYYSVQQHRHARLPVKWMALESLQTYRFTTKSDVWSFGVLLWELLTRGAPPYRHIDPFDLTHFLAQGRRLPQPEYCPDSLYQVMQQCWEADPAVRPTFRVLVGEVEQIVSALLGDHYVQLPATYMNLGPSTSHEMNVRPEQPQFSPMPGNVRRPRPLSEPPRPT
Test [11] deals with T5, Interleukin-1 receptor-associated kinase 4 (Homo sapiens, UniProt Q9NWZ3).
T5 sequence (Q9NWZ3 whole entry): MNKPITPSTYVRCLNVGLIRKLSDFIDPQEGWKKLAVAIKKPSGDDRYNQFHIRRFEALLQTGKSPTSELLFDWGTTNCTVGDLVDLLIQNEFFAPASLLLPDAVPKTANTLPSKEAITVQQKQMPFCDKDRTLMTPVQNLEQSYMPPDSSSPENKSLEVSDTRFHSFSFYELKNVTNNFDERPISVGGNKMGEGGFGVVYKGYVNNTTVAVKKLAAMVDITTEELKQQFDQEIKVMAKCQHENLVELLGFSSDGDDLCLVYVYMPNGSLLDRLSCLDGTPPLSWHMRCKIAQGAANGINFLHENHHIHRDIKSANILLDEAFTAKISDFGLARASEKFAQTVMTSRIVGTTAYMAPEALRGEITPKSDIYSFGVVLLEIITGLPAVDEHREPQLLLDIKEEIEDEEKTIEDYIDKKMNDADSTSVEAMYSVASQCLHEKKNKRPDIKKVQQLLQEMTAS

Active and inactive are the calls of the source. Rule as the data show it, for most assays here: actives have a measured Kd and inactives only a lower limit.
Also: in the data inactive means no Kd found up to 30 µM.

Chain of Deoxycytidine kinase (P27707 whole entry): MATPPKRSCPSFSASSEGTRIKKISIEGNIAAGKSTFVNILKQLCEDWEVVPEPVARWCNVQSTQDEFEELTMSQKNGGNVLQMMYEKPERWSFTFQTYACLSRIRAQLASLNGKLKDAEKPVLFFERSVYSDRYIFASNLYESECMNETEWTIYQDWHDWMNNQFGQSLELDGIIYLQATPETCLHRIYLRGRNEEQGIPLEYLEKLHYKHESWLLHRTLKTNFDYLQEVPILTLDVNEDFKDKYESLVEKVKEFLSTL
Chain of AP2-associated protein kinase 1 (Q2M2I8 whole entry): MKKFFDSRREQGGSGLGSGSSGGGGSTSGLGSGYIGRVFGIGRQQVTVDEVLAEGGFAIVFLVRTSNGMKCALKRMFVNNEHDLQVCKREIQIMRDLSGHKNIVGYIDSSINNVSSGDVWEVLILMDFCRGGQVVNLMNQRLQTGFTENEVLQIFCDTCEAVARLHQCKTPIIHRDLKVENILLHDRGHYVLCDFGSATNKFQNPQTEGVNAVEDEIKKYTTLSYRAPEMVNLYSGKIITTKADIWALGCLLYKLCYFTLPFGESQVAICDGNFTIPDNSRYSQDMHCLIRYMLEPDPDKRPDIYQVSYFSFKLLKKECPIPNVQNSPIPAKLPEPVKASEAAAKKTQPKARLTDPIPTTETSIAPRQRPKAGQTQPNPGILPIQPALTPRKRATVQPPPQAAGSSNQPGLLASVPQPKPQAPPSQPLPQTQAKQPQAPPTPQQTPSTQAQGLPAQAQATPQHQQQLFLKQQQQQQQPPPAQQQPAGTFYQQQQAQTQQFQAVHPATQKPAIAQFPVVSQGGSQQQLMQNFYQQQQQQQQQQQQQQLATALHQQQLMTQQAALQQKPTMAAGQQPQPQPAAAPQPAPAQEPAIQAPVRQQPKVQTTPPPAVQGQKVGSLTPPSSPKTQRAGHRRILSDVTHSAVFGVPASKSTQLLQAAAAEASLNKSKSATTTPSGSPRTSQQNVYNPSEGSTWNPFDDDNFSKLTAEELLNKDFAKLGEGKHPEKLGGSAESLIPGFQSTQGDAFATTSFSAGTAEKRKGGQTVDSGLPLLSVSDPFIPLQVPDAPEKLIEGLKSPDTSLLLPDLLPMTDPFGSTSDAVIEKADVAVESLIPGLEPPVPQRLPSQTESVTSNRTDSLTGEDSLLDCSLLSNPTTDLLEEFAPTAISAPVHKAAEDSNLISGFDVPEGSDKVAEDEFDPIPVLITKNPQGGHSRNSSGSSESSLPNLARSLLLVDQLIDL

As to `CCc1nc(C(N)=O)c(Nc2ccc(N3CCC(N4CCN(C)CC4)CC3)c(OC)c2)nc1NC1CCOCC1` [GILTERITINIB], the Kd in [1] was > 30 µM (inactive); in test [2], 0.011 µM (active); in test [3], > 30 µM (inactive); in test [4], 0.191 µM (active); in [5], > 30 µM (inactive); in [6], 0.025 µM (active). Moreover, the Kd was 1.89 µM (active) in test [7]; > 30 µM (inactive) on Deoxycytidine kinase; > 30 µM (inactive) in [8]; > 30 µM (inactive) in [9]; 0.804 µM (active) in test [10].

Take `CC1(COc2ccc3c(c2)ncn3-c2ccc3cccc(N4CCC(N)CC4)c3n2)COC1` [CRENOLANIB]: the Kd in [1] was 1.07 µM (active); in test [2], > 30 µM (inactive); in [3], 1.98 µM (active); in test [4], > 30 µM (inactive); in test [5], > 30 µM (inactive); in [6] it was > 30 µM (inactive). Moreover, the Kd (in test [7]; at Deoxycytidine kinase; in test [8]; in [9]; in [10]) was > 30 µM (inactive) each time.

Take `CCN1CCN(Cc2ccc(Nc3ncc(F)c(-c4cc(F)c5nc(C)n(C(C)C)c5c4)n3)nc2)CC1` [ABEMACICLIB]: the Kd in test [11] is > 30 µM (inactive); in [2], 0.088 µM (active); in [3], > 30 µM (inactive); in test [4] it was > 30 µM (inactive); in test [5], > 30 µM (inactive); in [7], > 30 µM (inactive). The Kd was > 30 µM (inactive) at Deoxycytidine kinase, 0.053 µM (active) in test [8], > 30 µM (inactive) in [9] and > 30 µM (inactive) in test [10].

With `O=c1[nH]c([C@@H]2CCCN2)nc2c1oc1ccc(Cl)cc12`, the Kd in [1], in [11], in test [2], in test [3], in test [4] and in [5] was > 30 µM (inactive) in each case. The Kd (in test [6]; in test [7]; at Deoxycytidine kinase; in test [9]; in [10]) was > 30 µM (inactive) each time.

Turning to `S=C(NCc1ccc2c(c1)OCO2)N1CCN(c2ncnc3c2oc2ccccc23)CC1` [AMUVATINIB], the Kd in test [1], in [11], in test [2], in test [3], in test [4] and in [5] was > 30 µM (inactive) throughout. Also, the Kd (in [6]; in test [7]; on Deoxycytidine kinase; in [9]; in test [10]) was > 30 µM (inactive) throughout.

With `O=C(NC[C@H](O)CO)c1ccncc1Nc1ccc(I)cc1F` [PIMASERTIB], the Kd in test [1], in test [11], in test [2], in test [3], in [4] and in test [5] was > 30 µM (inactive) each time. Besides, the Kd (in [6]; in [7]; on Deoxycytidine kinase; in [9]; in test [10]) was > 30 µM (inactive) in each case.

Take `Cc1c(NC(=O)OC[C@@H]2COCCN2)cn2ncnc(Nc3ccc4c(cnn4Cc4cccc(F)c4)c3)c12` [AC-480]: the Kd in test [1], in [11], in [2], in [3], in test [4] and in test [5] was > 30 µM (inactive) in each case. Further, the Kd (in test [6]; in test [7]; at Deoxycytidine kinase; in test [9]; in test [10]) was > 30 µM (inactive) each time.

On to `CN1CCN(c2nc(C3=C(c4c[nH]c5ccccc45)C(=O)NC3=O)c3ccccc3n2)CC1` [SOTRASTAURIN], for which the Kd in test [1], in test [11], in test [2], in test [4], in test [5] and in [6] was > 30 µM (inactive) each time. Besides, the Kd in [7] was > 30 µM (inactive); at Deoxycytidine kinase, > 30 µM (inactive); in [8] it was 6.69 µM; in test [9] it was > 30 µM (inactive); in [10] it was > 30 µM (inactive).

`CC(C)CC(=O)Nc1[nH]nc2c1CN(C(=O)C1CCN(C)CC1)C2(C)C` [PHA-793887]: the Kd is 0.008 µM (active) in test [1]; > 30 µM (inactive) in test [11]; > 30 µM (inactive) in [2]; > 30 µM (inactive) in test [3]; > 30 µM (inactive) in [4]; > 30 µM (inactive) in [5]. The Kd (in test [6]; at Deoxycytidine kinase; in test [8]; in test [10]) was > 30 µM (inactive) throughout.

For the compound `NC[C@@](O)(c1ccc(Cl)cc1)c1ccc(-c2cn[nH]c2)cc1` [AT-13148], the Kd in test [1], in test [11], in [2], in [3], in test [5] and in [6] was > 30 µM (inactive) in each case. For the same compound, the Kd (in test [7]; at Deoxycytidine kinase; in [9]; in test [10]) was > 30 µM (inactive) each time.
